The numbers were not newly measured in patent US9848760B2, “Devices for continual monitoring and introduction of gastrointestinal microbes” (Gearbox, LLC, priority 2009, dated 2017), which cites them from elsewhere.

Series [1] concerns enterotoxigenic Escherichia coli (ETEC). The settings on record: ETEC infection, MIC90 level, FIG. 17.
[2] abbreviates: infant stool, associated with treatment.
[3] abbreviates: infant treated at 4 months of age, relative to reference microbial profile at 1 month of age.

`CC1(C)S[C@@H]2[C@H](NC(=O)[C@H](N)c3ccc(O)cc3)C(=O)N2[C@H]1C(=O)O` [amoxicillin]: in the series on intestinal microbes (setting [2]), the abundance of bacilli result is recorded as “increases” and the “abundance of gamma proteobacteria” value is “reductions”. Further, in the series on intestinal microbes (setting [3]), the “bacterial composition in stool samples” value is “altered” and the “total bacterial density in stool samples” value is on record as “decrease”.
For the compound `COc1cc(Cc2cnc(N)nc2N)cc(OC)c1OC` [TMP, trimethoprim], the MIC values result in series [1] is recorded as “high”.
Take `CC1(C)S[C@@H]2[C@H](NC(=O)[C@H](N)c3ccccc3)C(=O)N2[C@H]1C(=O)O` [AMP, ampicillin]: in series [1], the MIC values result is reported as “high”.
Regarding TMP/sulfamethoxazole [SXT], the MIC values entry in series [1] was “high”.
